Consider 10 molecules from patent US5403862A, “Method for oral decorporation of metals” (priority 1992, dated 1995).

Series [1] can be described thus: Effect of 1 week oral feeding of TT-based chelons on total body and liver content of 241Am (Table 1). It counts as in vivo, rats. Details: % Reduction in liver 241Am (Compared with controls): concentration or dose not given beside the values. To be noted: for % Reduction in liver 241Am (Compared with controls): 1 week oral feeding, determined at necropsy; for % Reduction in total body 241Am (Before vs after chelon feeding): po, 168 h. On the procedure: (§1) To test the ability of complexed chelons to move across membrane and cellular barriers, an assay has been developed that measures the intestinal passage of the chelons in closed duodenal segments in situ over a 3 hour period. […] Although there were differences in the rate at which some of these compounds moved through this tissue barrier, all were effective in Am removal in vivo as set forth in the following Table 1.
Effect of 1 week feeding of TT-based chelons on total
body and liver content of ^241 Am. Am was allowed to
incorporate for 1 week prior to oral chelon feeding.
Total body counts were taken before and after chelon feeding.
Liver values were determined at necropsy.

A short description of series [2]: Distribution of 210Pb between water and chloroform after adding chelator. It counts as physicochemical. How it is done:
In this example the ability of DMS(C8)2, from Example 17, and C12 DMS Et2, from Example 16 to move ^210 Pb between lipid and aqueous phases of chloroform and water mixture was measured. This would be an indicator of the ability of the chelator and the chelate-metal complex to penetrate lipophilic barriers.
^210 Pb was dissolved in water. C12 DMS Et2 and DMS(C8)2 were added and mixed for 10 minutes with chloroform. The solutions were mixed every several hours. The phases separated and the percentage of ^210 Pb found in the chloroform phase as a function of time was determined.

Series [3] in a line: In vitro Pb binding and lipophilic character of C12 DMSA. Type of series: physicochemical. The source says:
As with the PACA's, the chain length could be changed and other functional groups could be added.

Series [4] relates to intestinal mucosa (duodenum and proximal jejunum). Briefly: Intestinal tied-loop passage of 241Am complexes in situ. It counts as in vivo, rats. To be noted: 241Am complex, 3 hours. How it is done:
as §1
The ability of Am-citrate and ^241 Am-C12 TT to cross the intestinal mucosa in situ was measured using an intestinal tied-loop technique. Rats were anesthetized and a 18-20 cm segment of the duodenum and proximal jejunum was isolated and rinsed with cold saline. The most proximal portion of this segment was 1 cm distal to the pyloric junction. With the stability of the ^241 Am-complex established, known quantities of the corresponding complexes were introduced in vivo directly into the isolated and ligated segment. The animals remained anesthetized to allow for passage of the lipophilic compounds through the intestinal barrier into the body. After 3 hours, the rats were euthanized, the ligated section of the gut was excised and its lumen flushed with saline. Lumen wash, cleaned gut section, combined viscera, liver and the remaining carcass were counted separately. The 241Am found in the various parts was considered as representative of the distribution of the chelon.

For the next series, the system named is red cells. The series can be described thus: Crenation-hemolysis test in fresh canine blood. It counts as cell-based. To be noted: Ca chelate, 10 and 20 mg, 37° C., 1 hour and 4 hours. How it is done: Toxicity studies were performed as indicators of early gross toxicity. […] Therefore, the crenation-hemolysis tests were repeated with the highly purified C12 -and C22 -PACAs. Two ml aliquots of fresh canine blood, drawn with a heparinized syringe, were incubated at 37° C. with an equal volume of a 0.1M Tris-buffer containing 10 and 20 mg, respectively, of the Ca chelate of the two compounds whose osmolarity had been adjusted to 270-300 mOsm. After 1 hour and 4 hours of incubation, respectively, blood smears were prepared and examined microscopically and cells were sedimented.

Series [5] can be described thus: Reduction of 241Am whole body and organ burden by oral chelon administration (Table 2, Example 12). The conditions noted are these: 10 days oral treatment, 50 micro-mole/rat/day, vs controls; for % Reduction of 241Am, both femora / % Reduction of 241Am, carcass / % Reduction of 241Am, liver / % Reduction of 241Am, whole body: p <0.001 (C12TT, C22TT); for % Reduction of 241Am, one kidney: p >0.1 (C12TT, C22TT). It counts as in vivo, Sprague-Dawley rats. On the procedure:
^a) Reduction = 100 - (% of initial activity in treated rats at
death/% of initial activity in controls at death); 9 Rats/Group; 10 Days
(§2) In vivo studies of the compounds of the present invention were performed. The effect of oral treatment on rats given an injection of 241Am was studied by a) comparing the reduction of an internal burden of 241Am from rats fed C12 TT or C22 TT with the natural biological retention of ^241 Am under condition of no chelation treatment; b) examination of histologic sections of tissues obtained from treated rats and c) by comparing the relative weight gain of treated rats and controls during the chelon feeding period. The effect of feeding C12 TT or C22 TT on the retention of ^241 Am was tested in 3 groups of 9 rats each. Sprague-Dawley rats (Simonson Labs., Gilroy, Cailf.), aged 60 days, were used in these studies. The animals were housed in groups of 3 or 4 until treatment was initiated. ^241 Am was given via the jugular vein as a single injection in citrate buffer of pH 3.5. One week later, rats were transferred to individual cages and feeding of the chelator was initiated. This delay allowed the nuclide to be incorporated firmly in the target organs, mostly liver and bone.
(§3) The first group served as untreated controls, the second and third groups received 50 micro-mole of C12 TT or C22 TT/rat or about 200 micro-mole/kg of body weight, respectively, in their daily ration of 25 g of rodent chow. On days 1 and 7 after injection and on days 3, 6 and 10 of chelation treatment, the total body retention of ^241 Am was measured using a whole body counter. The animals were necropsied after 10 days of oral chelation therapy and the femora, liver, 1 kidney, viscera and carcass with integument were counted for ^241 Am content. The other kidney and a sample of the small and large intestine were prepared for histological evaluation. Whole body retentions as a function of time were evaluated. Terminal organ retentions were measured after necropsy only. The reduction in whole body or organ retention due to oral chelation treatment was expressed as: [formula] both taken at the same time after treatment initiation. Results are shown in Table 2 above, which is incorporated into this Example by reference.

A short description of series [6]: Elimination of intravenously injected 241Am-complexed chelons by whole body counting and excreta. Type of series: in vivo. The conditions noted are these: intravenous. How it is done: In this example, animals were injected intravenously with ^241 Am-complexed C12 TT or K11 TT (K= terminally carboxylated alkyl series) and the rates of elimination from the body were determined. This was determined by whole body counting and counting of the excreta, both urine and feces. FIG. 2 illustrates the fraction of total body retention of the labeled chelating agents as a function of time after exposure. […] This example illustrates that modified polyaminocarboxylic acids have different organ targeting properties and different excretion pathways.

A short description of series [7]: Weight gain and histology of rats during oral chelon feeding. Type of series: in vivo, Sprague-Dawley rats. The conditions noted are these: 10 days oral feeding; controls 61.1+8.8 g. How it is done: as §2, with “The animals were housed in groups of 3 or 4 until treatment was initiated. ^241 Am was given via the jugular vein as a single injection in citrate buffer of pH 3.5. One week later, rats were transferred to individual cages and feeding of the chelator was initiated. This delay allowed the nuclide to be incorporated firmly in the target organs, mostly liver and bone.” left out
as §3, with “The other kidney and a sample of the small and large intestine were prepared for histological evaluation.” left out, “The reduction in whole body or organ retention due to oral chelation treatment was expressed as: [formula] both taken at the same time after treatment initiation. Results are shown in Table 2 above, which is incorporated into this Example by reference.” left out

Series [8] can be described thus: Reduction of 239Pu organ burden by oral administration of C22 TT (Table 5, Example 14). To be noted: 10 days in diet, starting 14 days after Pu, vs untreated. Type of series: in vivo, Sprague-Dawley rats. On the procedure: Twelve young adult male rats (Sprague-Dawley rats from Simonsen Labs, Gilroy, Calif.) were given ^239 Pu by intravenous injection. Fourteen days later 6 of the animals were fed C22 TT in the diet while the other 6 animals were not fed the compound and served as controls. The delay in beginning the chelation treatment allowed the nuclide to be incorporated firmly in the target organs. After 10 days of feeding, the animals were sacrificed and the Pu content in 'select tissues was determined by liquid scintillation counting.
*100 × (1Pu in treated animals/Pu in untreated, control animals)

The nature of series [9]: Solution behaviour / micelle formation of C22 TT. It counts as physicochemical.
A further series relates to intestinal tract. To be noted: dogs; cited from earlier work.
For series [10] the following is noted: known chelators; cited from earlier work.
A short description of series [11]: pH-titration at constant ionic strength. To be noted: pH-titration in both directions. Type of series: physicochemical. On the procedure:
For each compound, pH-titrations in both directions were carried out at constant ionic strength. All compounds were completely […] between pH 7.2 and 7.8 for the DT-series and 7.7 and 8.0 for the TT-series, pointing to the availability of all potential donor electrons derived from carboxyl oxygens--for complex or chelate formation similar to EDTA (pH 8.8) and DTPA (pH 6.7), the two model compounds known for their ability to chelate actinides and some other metals.

SMILES strings stand for the structures.

As for `CCCCCCCCN(CCN(CCN(CCN(CC(=O)O)CC(=O)O)CC(=O)O)CC(=O)O)CC(=O)O` [C8 TT], in series [1], the “% Reduction in liver 241Am (Compared with controls)” value (shortened to “% Reduction in liver 241Am”) is recorded as -30.1 ± 10.0% and the “% Reduction in total body 241Am (Before vs after chelon feeding)” value (from here on “% Reduction in total body 241Am”) is -39.0 ± 6.3%.
As for `CCCCCCCCCCCCSC(C(=O)OCC)C(S)C(=O)OCC` (centres unmarked) [C12 DMS Et2, S-Dodecyl dimercaptosuccinic acid diethyl ester], in series [2], the “Percentage of aqueous 210Pb found in chloroform phase, 15 min” value came out at 36.5% and the “Percentage of aqueous 210Pb found in chloroform phase, 16 h” value is given as 62.2%.
For `CCCCCCCCCCCCSC(C(=O)O)C(S)C(=O)O` (centres unmarked) [C12 DMSA, S-Dodecyl dimercaptosuccinic acid], in series [3], the “ability to bind Pb in vitro” value is on record as “ability of this molecule to bind Pb is demonstrated in vitro” and the “partial lipophilic character” value is given as “partial lipophilic character of this molecule has been established in vitro”.
With `CCCCCCCCCCCCN(CCN(CCN(CCN(CC(=O)O)CC(=O)O)CC(=O)O)CC(=O)O)CC(=O)O` [C12 TT, 1-N-Dodecyl-triethylenetetramine pentaacetic acid], in series [4], the “fraction found in carcass” value was 20%; the “fraction found in liver” value was 3%; the “fraction found in lumen and gut section” value came to 73%; the “fraction found in viscera” value is reported as 4%. Further, in the series on red cells, the “appearance of sera / hemolysis” value is recorded as “All sera were slightly pink in appearance” and the “red cell crenation” value was “No red cell crenation was observed”. In [5], the “% Reduction of 241Am, both femora” value is given as 17%; the “% Reduction of 241Am, carcass” value is reported as 20%; the “% Reduction of 241Am, liver” value came to 71%; the “% Reduction of 241Am, whole body” value was determined as 29%. Also, the “% Reduction of 241Am, one kidney” value in [5] is reported as 24%. In addition, in series [6], the “excretion pathway” value is “via the liver, through the bile into the feces” and the “rate of elimination from the body” value is on record as “less rapidly excreted”. In series [7], the weight gain is 55.7+11.1 g. For the same molecule, in [1], the “% Reduction in liver 241Am” value is listed as -57.1 ± 0.1% and the “% Reduction in total body 241Am” value is -46.5 ± 4.0%.
For the molecule `CCCCCCCCCCCCCCCCCCCCCCN(CCN(CCN(CCN(CC(=O)O)CC(=O)O)CC(=O)O)CC(=O)O)CC(=O)O` [C22 TT, 1-N-Docosyl-triethylenetetramine pentaacetic acid], the “% Reduction of 239Pu, liver” value in series [8] (p <0.005) came to 71.1%. Besides, in [8] (p <0.01), the “% Reduction of 239Pu, spleen” value turned out to be 16.9%. In [8] (p <0.375), the “% Reduction of 239Pu, femora” value is listed as 3.5% and the “% Reduction of 239Pu, lumbar vertebral bodies” value was 8.4%. The “solution clarity / micelle formation” value in series [9] is reported as “micelle formation”. In addition, in the series on red cells, the “appearance of sera / hemolysis” value is “All sera were slightly pink in appearance” and the “red cell crenation” value is recorded as “No red cell crenation was observed”. In [5], the “% Reduction of 241Am, both femora” value was 32%; the “% Reduction of 241Am, carcass” value stood at 36%; the “% Reduction of 241Am, liver” value was found to be 89%; the “% Reduction of 241Am, whole body” value amounted to 44%. In series [5], the “% Reduction of 241Am, one kidney” value was found to be 26%. Further, the weight gain in series [7] is on record as 70.2+11.6 g. For the same molecule, in series [1], the “% Reduction in liver 241Am” value was -47.9 ± 9.1% and the “% Reduction in total body 241Am” value is listed as -45.7 ± 6.1%.
Turning to `O=C([O-])CN(CCN(CC(=O)[O-])CC(=O)[O-])CCN(CC(=O)[O-])CC(=O)[O-].[Ca+2].[Na+].[Na+].[Na+]` [Ca DTPA], the “toxicity after frequent administration” value in the series with intestinal tract was “destruction of the epithelial lining and related structures of the intestinal tract followed by death”.
For `CCCCCCCCOC(=O)C(S)C(S)C(=O)OCCCCCCCC` (centres unmarked) [DMS(C8)2, dimercaptosuccinic acid dioctyl ester], in series [2], the “Percentage of aqueous 210Pb found in chloroform phase, 15 min” value is listed as 32.2% and the “Percentage of aqueous 210Pb found in chloroform phase, 16 h” value is given as 41.9%.
With `O=C(O)C(S)C(S)C(=O)O` (centres unmarked) [DMSA, 2,3dimercaptosuccinic acid], the “effectiveness in removing lead” value in series [10] was “effective for reducing blood levels of Pb, but has limited effectiveness in removing lead burdens from other organs, such as liver, brain and bone”.
Consider `O=C(O)CN(CCN(CC(=O)O)CC(=O)O)CCN(CC(=O)O)CC(=O)O` [DTPA, diethylenetriamine pentaacetic acid], for which, in [11], the “pH of complete protonation” value amounted to 6.7.
With `O=C(O)CN(CCN(CC(=O)O)CC(=O)O)CC(=O)O` [EDTA, ethylenediaminetetraacetic acid], the “effectiveness in removing lead” value in series [10] is “effective in removing lead in the blood, but is not effective in removing lead which has penetrated the cells”. In [11], the “pH of complete protonation” value is listed as 8.8.
